Results reported in US7521589B2, “Developmental animal model of temporal lobe epilepsy” (University of Prince Edward Island, priority 2003, dated 2009).

What was measured:
Type in all cases: in vivo, rat
[1] = tested on: Sprague Dawley rats; assay: NIS-L syndrome during Morris Water Maze (MWM) testing
Method: Within 24 hr of birth, offspring of untimed-pregnant Sprague Dawley rats (Charles River Laboratories, St. Constant, PQ) were culled to 10 pups/litter (5 males and 5 females). […] These doses are well below those normally required to induce toxicity in animals of this age (Doucette, T. A. et al., Neurotox. Teratol. [2003] 25:473-479, and Doucette, T. A., et al., Neurotox. Teratol. [2000] 22:863-869). Pups were assessed daily until weaning (on PND 22) for overt signs of toxicity, and all pre- and post-weaning testing was conducted with the experimenter blind to treatment. All procedures were conducted in accordance with the guidelines of the Canadian Council on Animal Care. […] Rats received no additional drug treatment after PND 14. On PND 120, animals were tested for spatial learning and memory in the Morris Water Maze (MWM) (8 trials/day over 6 consecutive days), using a standard reversal procedure (McNamara, R. K. and Skelton, R. W., Brain Res. Brain Res. Rev. [1993] 18:33-49). While on the escape platform during the 60 second inter-trial interval, a significant number of DOM-treated rats presented with abnormal behaviour characterized by a combination of hunched body posture, facial clonus, mastication with tongue-protrusion, repetitive head extensions and bobbing, repetitive eye blinking/squinting, and vibrissae and ear twitching, often in combination with forelimb clonus. Presentation of all of the above behaviours was termed “novelty-induced seizure-like (NIS-L) syndrome”. Of note, the expression of this syndrome was not consequent to earlier drug-induced toxicity or seizures, nor was it spontaneous.
The Morris Water Maze (MWM) consisted of a circular tank measuring 1.5 m in diameter. Water temperature was maintained at approximately 21° C. and was made opaque by a layer of polypropylene pellets floated on the surface. Four points around the edge of the pool were arbitrarily designated as north (N), south (S), east (E), and west (W), allowing the apparatus to be divided into 4 corresponding quadrants (NE, SE, NW, SW). A clear plexiglass escape platform was submerged approximately 2 cm below the water surface and placed, initially, in the NE quadrant of the maze (alternate locations for the reversal task were implemented on Day 3 and Day 5). Extra-maze cues consisted of laboratory furniture and lights (held constant throughout the experiment). A video camera was mounted above the center of the pool and all performance was recorded for subsequent analyses. […] Escape latencies and inter-trial behaviour was recorded by observers blind to experimental treatment.

[2] = tested on: Sprague Dawley rats; assay: NIS-L syndrome in open field arena; conditions: male rats; for animals displaying NIS-L in open field arena: tested PND 270
Method: To determine if the syndrome could be elicited by novel stimuli other than the MWM, all rats were tested in the Novel Water Maze (NWM) (Kant, G. J., Pharmacol. Biochem. Behav. [1993] 44:287-295) approximately 120 days after the MWM testing (i.e. PND 240).
The open field apparatus consisted of a 1.5 m diameter circular arena sectioned into 32 grids (16 central grids: 9 cm×9 cm; 16 peripheral grids). The open field was chosen as another environment that provided novelty while at the same time being less physiologically challenging than the previously described two water maze tasks. All rats were given a single 10 min trial in the open field arena and scored for the presence or absence of NIS-L by an experimenter blind to treatment. All testing procedures were conducted according to the guidelines of the Canadian Council on Animal Care.

[3] = tested on: Sprague Dawley rats; assay: NIS-L syndrome during Novel Water Maze (NWM) testing; conditions: for animals exhibiting NIS-L syndrome in NWM: tested PND 240; for animals displaying NIS-L syndrome during NWM testing: separate cohort, tested at 15 months
Method: To determine if the syndrome could be elicited by novel stimuli other than the MWM, all rats were tested in the Novel Water Maze (NWM) (Kant, G. J., Pharmacol. Biochem. […]
The Novel Water Maze (NWM) (Kant, G. J., Pharmacol. Biochem. Behav. [1993] 44:287-295) was selected based on its provision of a novel environment within which to evaluate the novelty impact on the precipitation of NIS-L. Animals were tested for 6 consecutive swim trials of 60 sec duration and scored for the presence or absence of NIS-L behaviours, by an observer blind to treatment during the 120 sec inter-trial period.

[4] = tested on: Sprague Dawley rats; assay: Daily assessment of pups until weaning for overt toxicity and weight gain; conditions: 5 or 20 μg/kg s.c. daily PND 8-PND 14
Method: Within 24 hr of birth, offspring of untimed-pregnant Sprague Dawley rats (Charles River Laboratories, St. Constant, PQ) were culled to 10 pups/litter (5 males and 5 females). From post-natal day (PND) 8-PND 14, pups were weighed and given a single daily injection (s.c.; 10 ml/kg) of either saline, or 5 or 20 μg/kg domoic acid (DOM). These doses are well below those normally required to induce toxicity in animals of this age (Doucette, T. A. et al., Neurotox. Teratol. [2003] 25:473-479, and Doucette, T. A., et al., Neurotox. Teratol. [2000] 22:863-869). Pups were assessed daily until weaning (on PND 22) for overt signs of toxicity, and all pre- and post-weaning testing was conducted with the experimenter blind to treatment. All procedures were conducted in accordance with the guidelines of the Canadian Council on Animal Care. […] Rats received no additional drug treatment after PND 14. On PND 120, animals were tested for spatial learning and memory in the Morris Water Maze (MWM) (8 trials/day over 6 consecutive days), using a standard reversal procedure (McNamara, R. K. and Skelton, R. W., Brain Res. Brain Res. Rev. [1993] 18:33-49). […]

C=C(C)[C@H]1CN[C@H](C(=O)O)[C@H]1CC(=O)O [KA, kainic acid]
rats with NIS-L syndrome (study parallel in design to Example 1) ([1]; female rats, 25 μg/kg neonatally): 16.7%
rats with NIS-L syndrome (study parallel in design to Example 1) ([1]; female rats, 100 μg/kg neonatally): 57.1%
rats with NIS-L syndrome (study parallel in design to Example 1) ([1]; male rats, 25 μg/kg neonatally): 62.5%
rats with NIS-L syndrome (study parallel in design to Example 1) ([1]; male rats, 100 μg/kg neonatally): 62.5%
rats exhibiting NIS-L syndrome in open field arena ([2]; 25 μg/kg neonatally): 62.5%
rats exhibiting NIS-L syndrome in open field arena ([2]; 100 μg/kg neonatally): 33.3%

C/C(=C/C=C/[C@@H](C)C(=O)O)[C@H]1CN[C@H](C(=O)O)[C@H]1CC(=O)O [DOM, domoic acid]
animals exhibiting NIS-L syndrome in NWM ([3]; female rats, 5 μg/kg PND 8-14): 33.3%
animals exhibiting NIS-L syndrome in NWM ([3]; female rats, 20 μg/kg PND 8-14): 100%
animals displaying NIS-L syndrome during NWM testing ([3]; female rats, 20 μg/kg PND 8-14): 50%
animals exhibiting NIS-L syndrome in NWM ([3]; male rats, 5 μg/kg PND 8-14): 33.3%
animals exhibiting NIS-L syndrome in NWM ([3]; male rats, 20 μg/kg PND 8-14): 66.7%
animals displaying NIS-L syndrome during NWM testing ([3]; male rats, 20 μg/kg PND 8-14): 50%
weight gain between groups [4]: no significant differences in weight gain
signs of physical or behavioural toxicity prior to weaning ([4]; pups assessed until PND 22): None of the pups displayed any signs of physical or behavioural toxicity
animals displaying NIS-L in open field arena ([2]; 5 μg/kg PND 8-14): 50%
animals displaying NIS-L in open field arena ([2]; 20 μg/kg PND 8-14): 66.7%
